{
  "source": "patent US20140094461A1",
  "about": "“BIOMARKERS FOR HEDGEHOG INHIBITOR THERAPY” (priority 2011, published 2014)",
  "key": {"medulloblastoma": {"tested_on": "medulloblastoma", "experiment": "Phase I dose escalation trial, adult medulloblastoma patients: clinical response", "format": "in vivo, human", "excerpt": "Adult cancer patients including patients with medulloblastoma, were enrolled into an ongoing phase I, dose escalation trial of methyl-4′-trifluoromethoxy-biphenyl-3-carboxylic acid [6-(cis-2,6-dimethyl-morpholin-4-yl)-pyridin-3-yl]-amide to evaluate safety and tolerability of methyl-4′-trifluoromethoxy-biphenyl-3-carboxylic acid [6-(cis-2,6-dimethyl-morpholin-4-yl)-pyridin-3-yl]-amide and assess maximally tolerated dose of methyl-4′-trifluoromethoxy-biphenyl-3-carboxylic acid [6-(cis-2,6-dimethyl-morpholin-4-yl)-pyridin-3-yl]-amide for adult patients. Archival FFPE tumor specimens collected prior to the start of the trial are available for analysis by the method of the invention from 3 enrolled medulloblastoma patients in this trial.\nBased on the 8-gene and 5-gene predictive model, the method of the invention was used to determine the Hedgehog activation status in tumor for these 3 patients. The two responders were determined to have Hedgehog-activated tumor while the tumor from the non-responder was called non-Hedgehog-activated. In addition, the single genes, SPHK1, OTX2, SFRP1, PDLIM3, or SHROOM2 were each used to determine the Hedgehog activation status based on the pre-established cut-off for each of the genes. By each of the single gene, the same Hedgehog-activated and non-Hedgehog-activated calls were made to the two responders and one non-responder, respectively. Among the 3 patients, only one patient had adequate tumor tissue samples available for additional mutational analysis of the PTCH1 and SMO gene. […] Inactivating PTCH1 mutations have been identified as a major mechanism of constitutively activating Hedgehog pathway in medulloblastoma. Therefore, identification of this PTCH1 mutation provides a mechanistic basis for Hedgehog pathway activation and observed clinical activity against Hedgehog signaling inhibitor in this patient and further validates the finding by the method of the invention."}, "[1]": {"tested_on": "basal cell carcinoma (BCC)", "experiment": "Phase I dose escalation trial, adult BCC patients with PTCH or SMO mutations: clinical response", "format": "in vivo, human", "excerpt": "In addition to the Hedgehog-activated medulloblastoma, basal cell carcinoma (BCC) is another cancer type that is mostly driven by mutations or genetic lesions of the Hedgehog pathway genes that lead to constitutive activation of the Hedgehog pathway. […] In an ongoing phase I, dose escalation trial of methyl-4′-trifluoromethoxy-biphenyl-3-carboxylic acid [6-(cis-2,6-dimethyl-morpholin-4-yl)-pyridin-3-yl]-amide, an Hedgehog signaling inhibitor antagonizing SMO, adult BCC patients were enrolled among patients with other solid tumors. Mutational analysis of PTCH1 and SMO by directly sequencing was performed to the archival tumor specimens collected at the time of diagnosis from the enrolled BCC patients. […] The method of the invention was used to determine the Hedgehog activation status of BCC tumors from these patients. With both the 5-gene and 8-gene models, the probability score of all 6 cases were above the pre-specified cut-off and therefore all were called Hedgehog-activated. Among these 6 patients, 2 achieved confirmed partial response on methyl-4′-trifluoromethoxy-biphenyl-3-carboxylic acid [6-(cis-2,6-dimethyl-morpholin-4-yl)-pyridin-3-yl]-amide treatment, 2 had stable disease for more than 6 month, and the other 2 patients discontinued methyl-4′-trifluoromethoxy-biphenyl-3-carboxylic acid [6-(cis-2,6-dimethyl-morpholin-4-yl)-pyridin-3-yl]-amide due to adverse events after less than 2 months of therapy which might be too brief to observe any clinical activities. […] The method of the invention can be used for identifying other types of tumor with the same underlining Hedgehog-mutation driven etiology that might preferentially benefit from a Hedgehog signaling inhibitor therapy."}, "[2]": {"details": "medulloblastoma patient 1, daily dose of 200 mg"}},
  "data": [
    {"compound": "Cc1c(C(=O)Nc2ccc(N3C[C@@H](C)O[C@@H](C)C3)nc2)cccc1-c1ccc(OC(F)(F)F)cc1", "note": "[methyl-4′-trifluoromethoxy-biphenyl-3-carboxylic acid [6-(cis-2,6-dimethyl-morpholin-4-yl)-pyridin-3-yl]-amide]", "values": [
      {"measurement": "time of treatment until progression", "setting": "medulloblastoma; 3rd medulloblastoma patient, daily dose of 200 mg", "value": 52, "unit": "days"},
      {"measurement": "clinical outcome", "setting": "medulloblastoma; 3rd medulloblastoma patient, daily dose of 200 mg, non-Hedgehog-activated tumor", "value": "progressed rapidly"},
      {"measurement": "duration of response before disease progression", "setting": "medulloblastoma; [2]", "value": 4, "unit": "months"},
      {"measurement": "time of treatment until partial response", "setting": "medulloblastoma; [2]", "value": 2, "unit": "months"},
      {"measurement": "tumor response by the RECIST criteria", "setting": "medulloblastoma; medulloblastoma patient 1, daily dose of 200 mg, Hedgehog-activated tumor", "value": "partial response (PR)"},
      {"measurement": "response measured by positron emission tomography (PET)", "setting": "medulloblastoma; metastatic medulloblastoma patient without measurable lesion, 1500 mg daily dose, Hedgehog-activated tumor, PTCH1 mutation", "value": "metabolic partial response"},
      {"measurement": "duration of metabolic partial response before disease relapse", "setting": "medulloblastoma; metastatic medulloblastoma patient, 1500 mg daily dose", "value": 7, "unit": "months"},
      {"measurement": "number of patients with stable disease for more than 6 month", "setting": "[1]; of 6 BCC patients with PTCH or SMO mutations", "value": 2, "unit": "patients"},
      {"measurement": "number of patients with confirmed partial response", "setting": "[1]; of 6 BCC patients with PTCH or SMO mutations, all called Hedgehog-activated", "value": 2, "unit": "patients"},
      {"measurement": "number of patients who discontinued due to adverse events", "setting": "[1]; of 6 BCC patients, after less than 2 months of therapy", "value": 2, "unit": "patients"}
    ]}
  ]
}
